Assay results taken from PubChem BioAssay (NCI).
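Exposure lasted 48 hours, with cells grown in 96-well plates and compounds tested at five concentrations. The concentration for 50% growth inhibition is given as GI50. Definition used: TGI = concentration required for complete inhibition of growth.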

Tests used:
Assay in all cases: NCI-60 cell line screen, 48 h
RXF 393 renal = test system: RXF 393 renal
BT-549 breast = test system: BT-549 breast
SK-MEL-28 melanoma = test system: SK-MEL-28 melanoma
SR leukemia = test system: SR leukemia
HL-60(TB) leukemia = test system: HL-60(TB) leukemia
SNB-19 CNS = test system: SNB-19 CNS
RPMI-8226 leukemia = test system: RPMI-8226 leukemia
UACC-257 melanoma = test system: UACC-257 melanoma
HCC-2998 colon = test system: HCC-2998 colon
HCT-15 colon = test system: HCT-15 colon

| SMILES | GI50 (RXF 393 renal) | TGI (RXF 393 renal) | GI50 (BT-549 breast) | TGI (BT-549 breast) | GI50 (SK-MEL-28 melanoma) | TGI (SK-MEL-28 melanoma) | GI50 (SR leukemia) | TGI (SR leukemia) | GI50 (HL-60(TB) leukemia) | TGI (HL-60(TB) leukemia) | GI50 (SNB-19 CNS) | TGI (SNB-19 CNS) | GI50 (RPMI-8226 leukemia) | TGI (RPMI-8226 leukemia) | GI50 (UACC-257 melanoma) | TGI (UACC-257 melanoma) | GI50 (HCC-2998 colon) | TGI (HCC-2998 colon) | GI50 (HCT-15 colon) | TGI (HCT-15 colon) |
| --- | --- | --- | --- | --- | --- | --- | --- | --- | --- | --- | --- | --- | --- | --- | --- | --- | --- | --- | --- | --- |
| O=C1Nc2ccccc2C12CC(c1ccccc1)=NN2 (centres undefined) | 3.78 µM | 36.6 µM | 6.35 µM | > 100 µM | 15.7 µM | > 100 µM | 3.64 µM | 34.8 µM | 3.29 µM | 15.3 µM | 12.7 µM | > 100 µM | 5.53 µM | 90.5 µM | 5.02 µM | > 100 µM | 36.1 µM | > 100 µM | 4.17 µM | > 100 µM |
| COC(=O)[C@]12CC[C@@H](C)[C@H](C)[C@@H]1C1=CC[C@@H]3[C@@]4(C)C(c5ncon5)=C[C@@](C)(CO)C4=CC[C@@]3(C)[C@]1(C)CC2 | 1.75 µM | 3.33 µM | 2.39 µM | 6.38 µM | – | – | 1.55 µM | 4.21 µM | 2.13 µM | 5.04 µM | 2.84 µM | 11.6 µM | 2.32 µM | 6.33 µM | 2.1 µM | 4.34 µM | 2.14 µM | 3.79 µM | 1.91 µM | 4.08 µM |
| COc1ccc2nc(-c3ccccc3)cc(Nc3ccc(/C(C)=N/O)cc3)c2c1 | – | – | 2.07 µM | 4.76 µM | 3.13 µM | > 100 µM | 3.82 µM | > 100 µM | 2.88 µM | > 100 µM | 5.38 µM | > 100 µM | 2.16 µM | 7.06 µM | 2.88 µM | 7.78 µM | 2.19 µM | 4.94 µM | 13.9 µM | > 63.9 µM |
| O=C1CC(c2ccccc2)Cc2nc3ccc(Cl)cc3cc21 (centres undefined) | – | – | 0.503 µM | 11.3 µM | 1.05 µM | > 100 µM | 0.0553 µM | 35.2 µM | 0.143 µM | 0.566 µM | 0.462 µM | > 100 µM | 2.78 µM | 37.8 µM | 15.6 µM | > 85.4 µM | 2.39 µM | 20.2 µM | 0.511 µM | 66.6 µM |
| COc1cc(C2c3cc4c(cc3C3OC(=O)C2C3CO)OCO4)cc(OC)c1OC (centres undefined) | < 0.0162 µM | – | 0.0334 µM | 9.27 µM | 8.68 µM | > 100 µM | – | – | 0.0207 µM | 0.0748 µM | – | > 100 µM | 0.0282 µM | > 100 µM | – | > 100 µM | 0.0297 µM | 0.0899 µM | 0.0272 µM | > 100 µM |
| N/C(=N\OC(=O)NC(Cl)=C(Cl)Cl)c1cc(C(F)(F)F)cc(C(F)(F)F)c1 | – | – | – | 41.2 µM | – | 32.8 µM | – | 26.2 µM | – | 30 µM | – | 50.5 µM | – | 34.8 µM | – | 31.1 µM | – | 25.8 µM | – | 48.4 µM |
| CC(=O)NNC(=O)c1nn(-c2ccc(Cl)cc2)cc1OC(C)=O | 16.9 µM | > 83.2 µM | 28.8 µM | > 100 µM | > 56.7 µM | > 100 µM | – | – | – | – | > 70.2 µM | > 100 µM | 12.1 µM | 64.3 µM | 87.8 µM | > 100 µM | 21.4 µM | > 100 µM | 7.23 µM | > 100 µM |
